Assay results published in the NIST ThermoML archive (doi:10.1016/j.jct.2017.10.012).
± gives the expanded uncertainty stated by the source.

Details: Liquid, Vibrating tube method

CCCC[N+](C)(C)C.O=S(=O)([N-]S(=O)(=O)C(F)(F)F)C(F)(F)F [butyltrimethylammonium bis(trifluoromethylsulfonyl)imide]
Details	mass density [kg/m3]
278.15 K, 100 kPa	1411.9 ± 0.8
278.15 K, 101.33 kPa	1411.6 ± 0.6
278.15 K, 1000 kPa	1412.6 ± 0.8
278.15 K, 10000 kPa	1419 ± 0.9
278.15 K, 20000 kPa	1425.6 ± 1
278.15 K, 40000 kPa	1438.3 ± 1.3
278.15 K, 60000 kPa	1450 ± 1.6
278.15 K, 80000 kPa	1460.7 ± 1.9
278.15 K, 100000 kPa	1470.6 ± 2.3
278.15 K, 120000 kPa	1480.6 ± 2.7
279.15 K, 101.33 kPa	1410.6 ± 0.6
280.15 K, 101.33 kPa	1409.6 ± 0.6
281.15 K, 101.33 kPa	1408.6 ± 0.6
282.15 K, 101.33 kPa	1407.7 ± 0.6
283.15 K, 101.33 kPa	1406.7 ± 0.6
284.15 K, 101.33 kPa	1405.7 ± 0.6
285.15 K, 101.33 kPa	1404.8 ± 0.6
286.15 K, 101.33 kPa	1403.8 ± 0.6
287.15 K, 101.33 kPa	1402.9 ± 0.6
288.15 K, 101.33 kPa	1402 ± 0.6
289.15 K, 101.33 kPa	1401 ± 0.6
290.15 K, 101.33 kPa	1400.1 ± 0.6
291.15 K, 101.33 kPa	1399.2 ± 0.6
292.15 K, 101.33 kPa	1398.3 ± 0.6
293.15 K, 101.33 kPa	1397.4 ± 0.6
294.15 K, 101.33 kPa	1396.5 ± 0.6
295.15 K, 101.33 kPa	1395.6 ± 0.6
296.15 K, 101.33 kPa	1394.7 ± 0.6
297.15 K, 101.33 kPa	1393.8 ± 0.6
298.15 K, 100 kPa	1394 ± 0.8
298.15 K, 101.33 kPa	1392.9 ± 0.6
298.15 K, 1000 kPa	1394.7 ± 0.8
298.15 K, 10000 kPa	1401.2 ± 0.9
298.15 K, 20000 kPa	1408.2 ± 1
298.15 K, 40000 kPa	1421.2 ± 1.2
298.15 K, 60000 kPa	1433.1 ± 1.5
298.15 K, 80000 kPa	1444.1 ± 1.8
298.15 K, 100000 kPa	1454.5 ± 2.2
298.15 K, 120000 kPa	1464.3 ± 2.6
299.15 K, 101.33 kPa	1392 ± 0.6
300.15 K, 101.33 kPa	1391.1 ± 0.6
301.15 K, 101.33 kPa	1390.2 ± 0.6
302.15 K, 101.33 kPa	1389.4 ± 0.6
303.15 K, 101.33 kPa	1388.5 ± 0.6
304.15 K, 101.33 kPa	1387.6 ± 0.6
305.15 K, 101.33 kPa	1386.7 ± 0.6
306.15 K, 101.33 kPa	1385.8 ± 0.6
307.15 K, 101.33 kPa	1385 ± 0.6
308.15 K, 101.33 kPa	1384.1 ± 0.6
309.15 K, 101.33 kPa	1383.2 ± 0.6
310.15 K, 101.33 kPa	1382.4 ± 0.6
311.15 K, 101.33 kPa	1381.5 ± 0.6
312.15 K, 101.33 kPa	1380.6 ± 0.6
313.15 K, 100 kPa	1380.9 ± 0.8
313.15 K, 101.33 kPa	1379.7 ± 0.6
313.15 K, 1000 kPa	1381.6 ± 0.8
313.15 K, 10000 kPa	1388.4 ± 0.9
313.15 K, 20000 kPa	1395.7 ± 1
313.15 K, 40000 kPa	1409.2 ± 1.2
313.15 K, 60000 kPa	1421.7 ± 1.5
313.15 K, 80000 kPa	1433 ± 1.8
313.15 K, 100000 kPa	1443.7 ± 2.2
313.15 K, 120000 kPa	1453.7 ± 2.6
314.15 K, 101.33 kPa	1378.9 ± 0.6
315.15 K, 101.33 kPa	1378 ± 0.6
316.15 K, 101.33 kPa	1377.1 ± 0.6
317.15 K, 101.33 kPa	1376.3 ± 0.6
318.15 K, 101.33 kPa	1375.4 ± 0.6
319.15 K, 101.33 kPa	1374.5 ± 0.6
320.15 K, 101.33 kPa	1373.7 ± 0.6
321.15 K, 101.33 kPa	1372.8 ± 0.6
322.15 K, 101.33 kPa	1372 ± 0.6
323.15 K, 101.33 kPa	1371.1 ± 0.6
324.15 K, 101.33 kPa	1370.3 ± 0.6
325.15 K, 101.33 kPa	1369.4 ± 0.6
326.15 K, 101.33 kPa	1368.6 ± 0.6
327.15 K, 101.33 kPa	1367.7 ± 0.6
328.15 K, 101.33 kPa	1366.8 ± 0.6
329.15 K, 101.33 kPa	1366 ± 0.6
330.15 K, 101.33 kPa	1365.1 ± 0.6
331.15 K, 101.33 kPa	1364.3 ± 0.6
332.15 K, 101.33 kPa	1363.4 ± 0.6
333.15 K, 100 kPa	1363.4 ± 0.8
333.15 K, 101.33 kPa	1362.6 ± 0.6
333.15 K, 1000 kPa	1364.2 ± 0.8
333.15 K, 10000 kPa	1371.6 ± 0.9
333.15 K, 20000 kPa	1379.3 ± 1
333.15 K, 40000 kPa	1393.4 ± 1.2
333.15 K, 60000 kPa	1406.4 ± 1.4
333.15 K, 80000 kPa	1418.3 ± 1.7
333.15 K, 100000 kPa	1429.5 ± 2.1
333.15 K, 120000 kPa	1439.8 ± 2.5
334.15 K, 101.33 kPa	1361.7 ± 0.6
335.15 K, 101.33 kPa	1360.9 ± 0.6
336.15 K, 101.33 kPa	1360 ± 0.6
337.15 K, 101.33 kPa	1359.2 ± 0.6
338.15 K, 101.33 kPa	1358.3 ± 0.6
339.15 K, 101.33 kPa	1357.5 ± 0.6
340.15 K, 101.33 kPa	1356.7 ± 0.6
341.15 K, 101.33 kPa	1355.9 ± 0.6
342.15 K, 101.33 kPa	1355 ± 0.6
343.15 K, 101.33 kPa	1354.1 ± 0.6
344.15 K, 101.33 kPa	1353.3 ± 0.6
345.15 K, 101.33 kPa	1352.6 ± 0.6
346.15 K, 101.33 kPa	1351.6 ± 0.6
347.15 K, 101.33 kPa	1350.8 ± 0.6
348.15 K, 100 kPa	1350.3 ± 0.8
348.15 K, 101.33 kPa	1349.9 ± 0.6
348.15 K, 1000 kPa	1351 ± 0.8
348.15 K, 10000 kPa	1358.7 ± 0.9
348.15 K, 20000 kPa	1366.7 ± 0.9
348.15 K, 40000 kPa	1381.5 ± 1.2
348.15 K, 60000 kPa	1394.9 ± 1.4
348.15 K, 80000 kPa	1407.1 ± 1.7
348.15 K, 100000 kPa	1418.6 ± 2.1
348.15 K, 120000 kPa	1429.3 ± 2.5
349.15 K, 101.33 kPa	1349.2 ± 0.6
350.15 K, 101.33 kPa	1348.3 ± 0.6
351.15 K, 101.33 kPa	1347.4 ± 0.6
352.15 K, 101.33 kPa	1346.6 ± 0.6
353.15 K, 101.33 kPa	1345.7 ± 0.6
354.15 K, 101.33 kPa	1344.9 ± 0.6
355.15 K, 101.33 kPa	1344 ± 0.6
356.15 K, 101.33 kPa	1343.2 ± 0.6
357.15 K, 101.33 kPa	1342.3 ± 0.6
358.15 K, 101.33 kPa	1341.5 ± 0.6
359.15 K, 101.33 kPa	1340.6 ± 0.6
360.15 K, 101.33 kPa	1339.8 ± 0.6
361.15 K, 101.33 kPa	1338.9 ± 0.6
362.15 K, 101.33 kPa	1338 ± 0.6
363.15 K, 101.33 kPa	1337 ± 0.6
364.15 K, 101.33 kPa	1336.1 ± 0.6
365.15 K, 101.33 kPa	1335.2 ± 0.6
366.15 K, 101.33 kPa	1334.3 ± 0.6
367.15 K, 101.33 kPa	1333.4 ± 0.6
368.15 K, 101.33 kPa	1332.5 ± 0.6
369.15 K, 101.33 kPa	1331.7 ± 0.6
370.15 K, 101.33 kPa	1330.9 ± 0.6
371.15 K, 101.33 kPa	1330.1 ± 0.6
372.15 K, 101.33 kPa	1329.2 ± 0.6
373.15 K, 100 kPa	1329.5 ± 5
373.15 K, 101.33 kPa	1328.4 ± 0.6
373.15 K, 1000 kPa	1329.7 ± 3
373.15 K, 10000 kPa	1338 ± 3
373.15 K, 20000 kPa	1346.6 ± 3.1
373.15 K, 40000 kPa	1362.3 ± 3.1
373.15 K, 60000 kPa	1376.5 ± 3.2
373.15 K, 80000 kPa	1389.5 ± 3.4
373.15 K, 100000 kPa	1401.5 ± 3.5
373.15 K, 120000 kPa	1412.7 ± 3.7
398.15 K, 100 kPa	1309.1 ± 5
398.15 K, 1000 kPa	1308.9 ± 3
398.15 K, 10000 kPa	1317.8 ± 3
398.15 K, 20000 kPa	1327 ± 3.1
398.15 K, 40000 kPa	1343.7 ± 3.1
398.15 K, 60000 kPa	1358.6 ± 3.2
398.15 K, 80000 kPa	1372.3 ± 3.3
398.15 K, 100000 kPa	1384.8 ± 3.5
398.15 K, 120000 kPa	1396.6 ± 3.6
